Measurements: US20030032674A1, “Use of unsaturated fatty acids to treat severe inflammatory diseases” (priority 2001, published 2003)

Experiments:
COX-2 expression [1] = test: COX-2 immunoblot (Western blot) in RAW 264.7 cells; type: cell-based, murine; settings: RAW 264.7; 75 μM fatty acid
Procedure: (§1) Cell culture—RAW 264.7 cells (a murine macrophage-like cell line, ATCC TIB-71), 293T cells (a human embryonic kidney cell line, provided by Sam Lee, Beth Israel Hospital. Boston, Mass.), and HT-29 cells (a human colon adenocarcinoma cell line, ATCC HTB-38) were cultured in Dulbecco's modified Eagle's medium (DMEM) containing 10% (v/v) heat-inactivated fetal bovine serum (FBS, Intergen) and 100 units/ml Penicillin and […] Streptomycin (GIBCO-BRL) at 37° C. in a 5% CO2/air environment. Cells (2×10^6) were plated in 60-mm dishes and cultured for an additional 18 hours to allow the number of cells to approximately double. Cells were maintained in serum-poor (0.25% FBS) medium for another 18 hours prior to the treatment with indicated reagents.
Preparation of fatty acids-albumin complexes—All fatty acids were solubilized in ethanol, and then combined with fatty acid-free and low-endotoxin BSA at a molar ratio of 10:1 (fatty acid: albumin) in serum-poor medium (0.25% FBS). Fatty acids-albumin complex solution was freshly prepared prior to each experiment.
Sodium dodecyl sulfate-polyacrylamide gel electrophoresis (SDS-PAGE) and immunoblotting—These procedures were performed as previously described in D. Hwang et al., “Expression of mitogen-inducible cyclooxygenase induced by lipopolysaccharide: mediation through both mitogen-activated protein kinase and NF-kappaB signaling pathways in macrophages,” Biochem. Pharmacol., vol. 54, pp. 87-96 (1997). Briefly, solubilized proteins were subjected to 8% SDS-PAGE for COX-2, iNOS, IL- 1α and GAPDH immunoblot analyses. Following electrophoresis, the gel was transferred to a PVDF membrane and the membrane was blocked to prevent non-specific binding of antibodies in TBS-T [20 mM Tris HCl, 137 mM NaCl, 0.05% (v/v) Tween 20, pH 7.6] containing 5% non-fat dried milk (Carnation). Immunoblotting was performed using respective polyclonal antibodies followed by incubation with anti-rabbit IgG coupled to horseradish peroxidase. The membrane was exposed on an X-ray film (Kodak) using ECL western blot detection reagents (Amersham).
After 11 h, cell lysates were analyzed by COX-2, iNOS, IL-1α, or GAPDH immunoblot using a Western blot analysis.
The cell lysates were analyzed by COX-2 or GAPDH immunoblot.
RAW 264.7 cells were pretested with various concentrations (5, 10, 20, and 50 μM) of docosahexaenoic acid (C22:6n-3) for 3 hours, and then stimulated with LPS (100 ng/ml) for 8 hours and analyzed by COX-2, iNOS, IL-1 a or GAPDH immunoblot.
Cells stably transfected with NFκB(5×) or COX-2 promoter reporter genes were pretreated with various concentrations of each fatty acid for 3 hrs. Cells were then treated with LPS (200 ng/ml). After 8 hrs, cell lysates were prepared and luciferase activities were determined. Data are expressed as a percentage of LPS treatment alone. The results for NFκB and COX-2 expression are given in FIGS. 8A and 8B, respectively. The values are mean±SEM (n=3) of RLA, relative luciferase activity. In FIG. 8C, the cells were pretreated with DHA (20 μM) or C12:0 (75 μM) for 3 hrs and further stimulated with LPS (200 ng/ml for DHA; 1 ng/ml for C12:0). After 8 hr, cell lysates were analyzed by COX-2 and actin immunoblotting.

COX-2 expression [2] = test: COX-2 immunoblot in TNFα-treated HT-29 colon cancer cells; type: cell-based, human; settings: pretreated 3 hours, TNFα 20 ng/ml 8 hours
Procedure: as §1
Sodium dodecyl sulfate-polyacrylamide gel electrophoresis (SDS-PAGE) and immunoblotting—These procedures were performed as previously described in D. Hwang et al., “Expression of mitogen-inducible cyclooxygenase induced by lipopolysaccharide: mediation through both mitogen-activated protein kinase and NF-kappaB signaling pathways in macrophages,” Biochem. Pharmacol., vol. 54, pp. 87-96 (1997). […]
Colon cancer cells (HT-29) were pretested with various concentrations of docosahexaenoic acid (C22:6n-3) for 3 hours and then treated with TNFα (20 ng/ml) for 8 hours. Cell lysates were analyzed by COX-2 and GAPDH immunoblot.

MyD88(CA) = test: NFκB reporter in 293T cells transfected with constitutively active MyD88; type: cell-based, human
Text: Plasmids and DNA Constructs—All plasmids and constructs were obtained or made as reported in either S. H. Rhee and D. Hwang, “Murine TOLL-like receptor 4 confers lipopolysaccaride responsiveness as determined by activation of NFκB and expression of the inducible cyclooxygenase,” Journal of Biological Chemistry, vol. 275, pp. 34035-34040 (2000); and J. Y. Lee et al., “Saturated fatty acids, but not unsaturated fatty acids, induce the expression of cyclooxygenase-2 mediated through TOLL-like receptor 4,” Journal of Biological Chemistry, vol. 276, pp. 16683-16689 (2001). Briefly, the luciferase reporter plasmids (pGL2) containing the promoter region of the murine COX-2 gene (−3201/+93 or −1017/+93) were provided by David Dewitt (Michigan State University, East Lansing, Mich.). To prepare the wild-type COX-2 promoter fragment, polymerase chain reaction (PCR) was performed with the primers named Kpn-COX2-For and Hind-COX2-Rev using the murine COX-2 (−1017/+93) luciferase reporter plasmid as a template. To prepare the mutant COX-2 promoter fragment containing mutated NFκB site, Kpn-COX2-Fmut and Hind-COX2-Rev were used as primers. Each PCR fragment was inserted into the KpnI and HindIII sites of pGL2 to generate the wild-type or mutant COX-2 (−410/+86) luciferase reporter constructs, respectively. Sequences for wild-type NFκB site and the primers were used as reported elsewhere. […]

COX-2 = target: T1, COX-2 (Ovis aries, UniProt P79208); settings: cited from earlier work
T1 sequence (P79208 17-603): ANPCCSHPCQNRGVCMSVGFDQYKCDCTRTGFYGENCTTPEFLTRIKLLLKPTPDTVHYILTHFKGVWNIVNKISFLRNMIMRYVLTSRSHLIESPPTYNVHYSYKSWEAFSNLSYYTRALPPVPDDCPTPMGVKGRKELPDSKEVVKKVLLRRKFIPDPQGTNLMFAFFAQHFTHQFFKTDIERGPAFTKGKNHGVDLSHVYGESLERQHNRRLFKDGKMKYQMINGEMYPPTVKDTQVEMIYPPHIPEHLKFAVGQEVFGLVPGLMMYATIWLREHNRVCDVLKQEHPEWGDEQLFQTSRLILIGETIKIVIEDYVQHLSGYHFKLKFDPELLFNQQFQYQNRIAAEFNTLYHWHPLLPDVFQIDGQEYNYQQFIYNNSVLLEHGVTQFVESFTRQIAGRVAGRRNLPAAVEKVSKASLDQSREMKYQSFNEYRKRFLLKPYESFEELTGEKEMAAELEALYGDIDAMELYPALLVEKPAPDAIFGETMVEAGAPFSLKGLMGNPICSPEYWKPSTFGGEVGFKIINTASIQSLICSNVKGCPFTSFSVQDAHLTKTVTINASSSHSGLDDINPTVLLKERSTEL

COX-2 promoter = COX-2 promoter luciferase reporter gene assay, transiently transfected RAW 264.7 cells; type: cell-based, murine
Text: Plasmids and DNA Constructs—All plasmids and constructs were obtained or made as reported in either S. H. Rhee and D. Hwang, “Murine TOLL-like receptor 4 confers lipopolysaccaride responsiveness as determined by activation of NFκB and expression of the inducible cyclooxygenase,” Journal of Biological Chemistry, vol. 275, pp. 34035-34040 (2000); and J. Y. Lee et al., “Saturated fatty acids, but not unsaturated fatty acids, induce the expression of cyclooxygenase-2 mediated through TOLL-like receptor 4,” Journal of Biological Chemistry, vol. 276, pp. 16683-16689 (2001). Briefly, the luciferase reporter plasmids (pGL2) containing the promoter region of the murine COX-2 gene (−3201/+93 or −1017/+93) were provided by David Dewitt (Michigan State University, East Lansing, Mich.). To prepare the wild-type COX-2 promoter fragment, polymerase chain reaction (PCR) was performed with the primers named Kpn-COX2-For and Hind-COX2-Rev using the murine COX-2 (−1017/+93) luciferase reporter plasmid as a template. To prepare the mutant COX-2 promoter fragment containing mutated NFκB site, Kpn-COX2-Fmut and Hind-COX2-Rev were used as primers. Each PCR fragment was inserted into the KpnI and HindIII sites of pGL2 to generate the wild-type or mutant COX-2 (−410/+86) luciferase reporter constructs, respectively. Sequences for wild-type NFκB site and the primers were used as reported elsewhere. (See Lee et al., 2001). The 2×NFκB-luciferase reporter construct was a gift from Frank Mercurio (Signal Pharmaceuticals, San Diego, Calif.). HSP70-β-galactosidase reporter plasmid was a gift from Robert Modlin (University of California, Los Angeles, Calif.). The expression plasmids for a constitutively active form of TLR4 (DTLR4) and a dominant-negative mutant, DTLR4 (P712H) were prepared as previously described. See S. H. Rhee et al., 2000. The expression plasmid of the wild-type NFκB-inducing kinase (NIK), pRK-NIK(wt) was a gift from Mike Rothe (Tularik, South San Francisco, Calif.). The dominant-negative mutant of inhibitor kB (pCMV4-IkBa(DN)) was provided by Dean Ballard (Vanderbilt University, Nashville, Tenn.). 4×NFκB-luciferase reporter construct was purchased from Clontech (Palo Alto, Calif.) and used for transient transfection. Heat shock protein 70 (HSP70)-β-galactosidase reporter plasmid was from Robert Modlin (University of Calif., Los Angeles, Calif.). The expression plasmids for a wild-type TLR2 and a dominant-negative mutant [TLR2 (P681H)] were from C. B. Wilson (University of Washington, Seattle, Wash.). Constitutively active chimeric CD4-TLR4 was obtained from C. A. Janeway, Jr. (Yale University, New Haven, Conn.). The constitutively active form of MyD88 (MyD88(ΔToll)) and the dominant-negative mutant, MyD88(ΔDD) were kindly provided by Jurg Tschopp (University of Lausanne, Switzerland). The dominant-negative mutant of mouse PPARg [pCMX-PPARg(L466A/L467A)] was a gift from Ira Schulman (Ligand Pharmaceuticals, San Diego, Calif.). All DNA constructs were prepared in large scale using the EndoFree Plasmid Maxi kit (Qiagen, Chatsworth, Calif.) for transfection.
Transient transfection and luciferase assay—These procedures were performed as described in S. H. Rhee et al., “Murine TOLL-like receptor 4 confers lipopolysaccharide responsiveness as determined by activation of NFκB and expression of the inducible cyclooxygenase,” J. Biol. Chem., vol. 275, pp. 34035-34040 (2000); and J. H. Paik et al., “Two opposing effects of non-steroidal anti-inflammatory drugs on the expression of the inducible cyclooxygenase, Mediation through different signaling pathways,” J. Biol. Chem., vol. 275, pp. 28173-28179 (2000). Briefly, RAW 264.7 cells were plated in 6-well plates (5×10^5 cells/well) and transfected with luciferase reporter plasmids and HSP70-β-galactosidase plasmid as an internal control using SuperFect transfect reagent (Quiagen) according to the manufacturer's instructions. […]

NFκB = NFκB luciferase reporter gene assay, transiently transfected RAW 264.7 cells; type: cell-based, murine; settings: PamCAG 1 μg/ml, 18 hr
TLR2 = target: T2, TLR2 (Homo sapiens, UniProt O60603); test: NFκB reporter in TLR2-transfected 293T cells; type: cell-based; settings: PamCAG 1 μg/ml, 18 hr
T2 construct: expressed in transfected cells; host or cells: 293T (stated not to express TLR2)
Text: Plasmids and DNA Constructs—All plasmids and constructs were obtained or made as reported in either S. H. Rhee and D. Hwang, “Murine TOLL-like receptor 4 confers lipopolysaccaride responsiveness as determined by activation of NFκB and expression of the inducible cyclooxygenase,” Journal of Biological Chemistry, vol. 275, pp. 34035-34040 (2000); and J. Y. Lee et al., “Saturated fatty acids, but not unsaturated fatty acids, induce the expression of cyclooxygenase-2 mediated through TOLL-like receptor 4,” Journal of Biological Chemistry, vol. 276, pp. 16683-16689 (2001). Briefly, the luciferase reporter plasmids (pGL2) containing the promoter region of the murine COX-2 gene (−3201/+93 or −1017/+93) were provided by David Dewitt (Michigan State University, East Lansing, Mich.). To prepare the wild-type COX-2 promoter fragment, polymerase chain reaction (PCR) was performed with the primers named Kpn-COX2-For and Hind-COX2-Rev using the murine COX-2 (−1017/+93) luciferase reporter plasmid as a template. To prepare the mutant COX-2 promoter fragment containing mutated NFκB site, Kpn-COX2-Fmut and Hind-COX2-Rev were used as primers. […]
Acylation by saturated fatty acids of bacterial lipopeptides is also required for the activation of TLR2. […] After 18 hr, luciferase activities were determined. […]

T2 sequence (O60603 21-784, species assumed): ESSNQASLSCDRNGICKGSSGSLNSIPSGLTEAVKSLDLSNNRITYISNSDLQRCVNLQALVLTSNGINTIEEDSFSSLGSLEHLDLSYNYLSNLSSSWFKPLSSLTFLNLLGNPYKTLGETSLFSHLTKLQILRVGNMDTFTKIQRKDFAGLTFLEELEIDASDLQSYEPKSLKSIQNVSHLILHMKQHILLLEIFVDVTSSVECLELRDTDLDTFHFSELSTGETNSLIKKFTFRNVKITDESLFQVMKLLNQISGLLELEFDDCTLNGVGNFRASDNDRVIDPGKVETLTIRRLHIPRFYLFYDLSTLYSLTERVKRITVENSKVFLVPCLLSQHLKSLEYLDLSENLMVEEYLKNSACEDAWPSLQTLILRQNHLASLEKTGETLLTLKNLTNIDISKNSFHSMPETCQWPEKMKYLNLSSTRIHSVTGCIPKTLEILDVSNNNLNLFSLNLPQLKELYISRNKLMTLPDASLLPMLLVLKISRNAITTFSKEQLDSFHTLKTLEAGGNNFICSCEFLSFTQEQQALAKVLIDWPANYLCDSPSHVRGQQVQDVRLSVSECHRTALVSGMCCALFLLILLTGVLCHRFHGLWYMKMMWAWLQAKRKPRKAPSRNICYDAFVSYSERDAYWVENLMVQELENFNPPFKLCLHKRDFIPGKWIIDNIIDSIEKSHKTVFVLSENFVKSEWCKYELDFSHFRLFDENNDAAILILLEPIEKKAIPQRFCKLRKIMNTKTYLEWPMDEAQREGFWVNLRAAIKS

Compound | COX-2 expression induced by fatty acid (immunoblot) (COX-2 expression [1]) | effect on COX-2 (inhibition) (COX-2) | further results
CCCCC/C=C\C/C=C\C/C=C\C/C=C\CCCC(=O)O [arachidonic acid] | unable to induce COX-2 expression |  | 
CCCCCC/C=C/C=C\CCCCCCCC(=O)O [conjugated linoleic acid, 9(Z), 11(E)-octadecadienoic acid] | unable to induce COX-2 expression |  | 
CC/C=C\C/C=C\C/C=C\C/C=C\C/C=C\C/C=C\CCC(=O)O [docosahexaenoic acid] |  |  | effect on TNFα-induced COX-2 expression (immunoblot) (COX-2 expression [2]): failed to inhibit; effect on NFκB activation induced by MyD88 (MyD88(CA)): does not inhibit
CCCCC/C=C\C/C=C\CCCCCCCC(=O)O [linoleic acid] | unable to induce COX-2 expression | not as effective | 
CCCCCCCCCCCCCC(=O)O [myristic acid] |  | No effect | 
CCCCCCCC/C=C\CCCCCCCC(=O)O [oleic acid] | unable to induce COX-2 expression | no effect | 
CCCCCCCCCCCCCCCC(=O)O [palmitic acid] |  | No effect | COX-2 expression induced by saturated fatty acids (relative luciferase activity) (COX-2 promoter; saturated fatty acids C8:0-C18:0, 75 μM each, 24 hr): most potent in inducing COX-2 expression
CCCCCCCCCCCCCCC(=O)O [pentadecanoic acid] |  | No effect | 
CCCCCCCCCCCCCCCCCC(=O)O [stearic acid] |  | No effect | 
CC/C=C\C/C=C\C/C=C\CCCCCCCC(=O)O [α-LA, α-linolenic acid] |  | Inhibitory effects | 
palmitoyl-Cys((RS)-2,3-di(palmitoyloxy)-propyl)-Ala-Gly-OH [PamCAG] |  |  | NFκB activation (endogenous TLR2) (NFκB): induced; expression of COX-2 (endogenous TLR2) (COX-2 promoter; RAW 264.7, PamCAG 1 μg/ml, 18 hr): induced; TLR2 activation as determined by NFκB activation (TLR2): activated TLR2
